Assay results from US8063225B2, “Tricyclic compound derivatives useful in the treatment of neoplastic diseases, inflammatory disorders and immunomodulatory disorders” (Chembridge Corporation, priority 2006, dated 2011).

Key:
Format in all cases: cell-based
KMS18 = test: Cell proliferation inhibition, MTT assay, KMS18; conditions: Homo sapiens, 72 h, KMS18 multiple myeloma cells, 3-day proliferation
Source text: (§1) IGF1R and other tyrosine kinase inhibitors can inhibit the proliferation of certain cancer cell lines indicating their possible therapeutic utility for treating the corresponding cancer types. Cancer cell lines of interest and control normal lines, including CHO, HEK293, BA/F3, COLO205, PC3, DU145, MCF7, Panc1, ACHN, Hep G2, H460, K562, TT, U87-MG, CAOV-3, SK-MEL5, Karpas 299 and human multiple myeloma cell lines H929, MM1s, MM1r, UTMC2, CPM2, KMS11, My5, KMS12PE, My7, JJN3, KMS18, U266, SKMM2, RPMI-8226 are plated in white, clear-bottomed 384-well cell culture plates at 2500-5000 cells per well and supplied with dilutions of tested compounds After a desired period of time (typically 3 days), the number of viable cells is quantitated by using Cell Titer-Glo Luminescent Cell Viability Assay (Promega), a cell proliferation assay system based on detection of total amount of ATP present as a measure of cell metabolic activity. The plated cells are mixed with the Cell Titer-Glo developing reagent and counted in a luminescence multiwell plate reader according to the standard manufacturer's protocol to generate IC50 curves for cell proliferation inhibition. Results are typically reported as percent of growth (% viability =(OD72h(compound)−ODday0))/(OD72h(no compound)−ODday0). Alternatively, viable cells are quantitated by using the conventional colorimetric MTT assay. The MTT assay is based on the cleavage of the yellow tetrazolium salt MTT to purple formazan crystal by metabolic active cells. The formazan is then solubilized, and the concentration determined by optical density at 570 nm. The cells plated and incubated with a compound as described above are supplemented with the solution of MTT and incubated for 2-3 hours. The growth medium is removed and dimethyl sulfoxide is added into each well to dissolve the formazan. The absorbance is measured on an ELISA plate reader with a test wavelength of 570 nm and a background subtraction wavelength of 630 nm to obtain sample signal (OD570-OD630). […] The results are reported in terms of IC50 value for a particular compound and a cell line in the standard 3-day proliferation assay using Cell Titer-Glo. […] The results are reported in terms of IC50 value for a particular compound and a cell line in the standard 3-day proliferation assay using MTT assay.

My5 = test: Cell proliferation inhibition, MTT assay, My5; conditions: Homo sapiens, Multiple myeloma cell, 72 h, My5 multiple myeloma cells, 3-day proliferation
Source text: as §1

U266 = test: Cell proliferation inhibition, MTT assay, U266; conditions: Homo sapiens, U-266, 72 h, U266 multiple myeloma cells, 3-day proliferation
Source text: as §1

My7 = test: Cell proliferation inhibition, MTT assay, My7; conditions: Homo sapiens, Multiple myeloma cell, 72 h, My7 multiple myeloma cells, 3-day proliferation
Source text: as §1

SKMM2 = test: Cell proliferation inhibition, MTT assay, SKMM2; conditions: Homo sapiens, SK-MM-2, 72 h, SKMM2 multiple myeloma cells, 3-day proliferation
Source text: as §1

KMS12PE = test: Cell proliferation inhibition, MTT assay, KMS12PE; conditions: Homo sapiens, 72 h, KMS-12PE multiple myeloma cells, 3-day proliferation
Source text: as §1

RPMI-8226 = test: Cell proliferation inhibition, MTT assay, RPMI-8226; conditions: Homo sapiens, 72 h, RPMI-8226 multiple myeloma cells, 3-day proliferation
Source text: as §1

JJN3 = test: Cell proliferation inhibition, MTT assay, JJN3; conditions: Homo sapiens, JJN-3, 72 h, JJN3 multiple myeloma cells, 3-day proliferation
Source text: as §1

SMILES | IC50 (KMS18) | IC50 (My5) | IC50 (U266) | IC50 (My7) | IC50 (SKMM2) | IC50 (KMS12PE) | IC50 (RPMI-8226) | IC50 (JJN3)
COc1ccc(OCC(=O)CNc2cc[nH]c(=O)c2-c2nc3cc4c(cc3[nH]2)C(=O)N(C2CCN(C)CC2)C4)c(Cl)c1 [drawing 850] | 1 to 5 µM | 5 to 20 µM | 1 to 5 µM | 5 to 20 µM | 5 to 20 µM | 1 to 5 µM | 5 to 20 µM | 1 to 5 µM
Cc1ccc(OCC(=O)CNc2cc[nH]c(=O)c2-c2nc3cc4c(cc3[nH]2)CN(CCCN2CCCC2)C4=O)c(C)c1 [drawing 847] | 5 to 20 µM | 5 to 20 µM | 5 to 20 µM | 5 to 20 µM | 5 to 20 µM | 5 to 20 µM | 5 to 20 µM | 5 to 20 µM
Cc1ccc(OCC(=O)CNc2cc[nH]c(=O)c2-c2nc3cc4c(cc3[nH]2)CN(C2CCN(C)CC2)C4=O)c(C)c1 [drawing 845] | 1 to 5 µM | 1 to 5 µM | 1 to 5 µM | 1 to 5 µM | 5 to 20 µM | 1 to 5 µM | 5 to 20 µM | 1 to 5 µM
CCc1cc2c(cc1OCC(=O)CNc1cc[nH]c(=O)c1-c1nc3cc4c(cc3[nH]1)C(=O)N(C1CCN(C)CC1)C4)OCO2 [drawing 849] | 1 to 5 µM | 5 to 20 µM | 1 to 5 µM | 1 to 5 µM | 5 to 20 µM | 5 to 20 µM | 5 to 20 µM | 1 to 5 µM
CN1CCC(N2Cc3cc4[nH]c(-c5c(NCC(=O)COc6ccccc6Br)cc[nH]c5=O)nc4cc3C2=O)CC1 [drawing 848] | 0.5 to 1 µM | 1 to 5 µM | 1 to 5 µM | 1 to 5 µM | 1 to 5 µM | 1 to 5 µM | 5 to 20 µM | 1 to 5 µM
